Results published in patent US10442804B2, “Compounds for the treatment of hepatitis B virus infection” (Gilead Sciences, Inc., priority 2017, dated 2019).
Where two headings read alike, the source gives them in different places.

Key:
[1] = test system: HBV-infected NTCP-HepG2 cells, secreted HBsAg; assay: microbe, parasite or virus in culture; type: cell-based, hepatitis B virus (genotype D, AD38-derived); conditions: Hepatitis B virus, 120 h, secreted HBsAg in supernatant after 5 days; geometric mean of minimum four determinations; read-out: NTCP HBsAg EC50
Experimental: NTCP-HepG2 Antiviral Assay for Secreted HBsAg
HepG2 cells stably expressing sodium-taurocholate cotransporting polypeptide (NTCP-HepG2) were grown in Dulbecco's Modified Eagle Medium (DMEM) without sodium pyruvate (Thermo Fisher Scientific, Waltham, Mass.) supplemented with 10% fetal bovine serum, 2 mM L-glutamine, 1% penicillin/streptomycin, and 0.25 mg/mL G-418. NTCP-HepG2 cells were infected with 4000 genome equivalent per cell of genotype D (AD38-derived) HBV in DMEM without sodium pyruvate (Thermo Fisher Scientific, Waltham, Mass.) supplemented with 2% fetal bovine serum, 2 mM L-glutamine, 1% penicillin/streptomycin, 2.5% DMSO, and 4% PEG 8000 (Promega, Madison, Wis.). After 24-hour incubation, cells were washed three times with OptiMEM (Thermo Fisher Scientific, Waltham, Mass.) and fed with fresh DMEM without sodium pyruvate (Thermo Fisher Scientific, Waltham, Mass.) supplemented with 2% fetal bovine serum, 2 mM L-glutamine, 1% penicillin/streptomycin, and 2.5% DMSO. At 4 days after infection, infected NTCP-HepG2 cells were seeded on 384-well plates pre-coated with collagen at a density of 20000 cells per well containing serially diluted compounds of the present disclosure or DMSO (0.5%) in a final volume of 80 μl of DMEM without sodium pyruvate (Thermo Fisher Scientific, Waltham, Mass.) supplemented with 2% fetal bovine serum, 2 mM L-glutamine, 1% penicillin/streptomycin, and 1% DMSO. After an incubation time of 5 days, cell culture supernatant was collected and measured for HBsAg.
Secreted HBsAg in the supernatant were measured using a multiplex chemiluminescent MSD assay (Meso Scale Discovery, Rockville, Md.) using capture and detection antibody pairs specific for HBsAg. The EC50 values were calculated from the fit of the dose-response curves to a four-parameter equation. All EC50 values represent geometric mean values of a minimum of four determinations.

MT-4 cytotoxicity assay = type: cell-based, human; conditions: human
Experimental: Biological Example 2: MT-4 Cytotoxicity Assay
The MT-4 cell line (HTLV-1 transformed, human T lymphoblastoid cells) was obtained from the NIH AIDS Reagent program (Bethesda, Md.). MT-4 cells were maintained in RPMI-1640 media (Thermo Fisher Scientific, Waltham, Mass.) supplemented with 10% fetal bovine serum, 100 Units/mL penicillin, and 100 μg/mL streptomycin. For the MT-4 cytotoxicity assay, 0.4 μL of serially diluted solutions of certain compounds disclosed herein were added to 40 μL of cell maintenance media in 384-well black, solid bottom plate using a Biomek FX workstation (Beckman Coulter, Brea, Calif.). Two thousand cells in 35 μL were added to each well using a Biotek uFlow Workstation (Biotek, Winooski, Vt.). Each assay plate contained 10 μM puromycin (final concentration) and 0.5% DMSO in RPMI-1640 media as positive and negative controls, respectively. Assay plates were incubated for five days at 37° C. in an incubator set at 5% CO2 and 90% humidity. After five days, 22 μL of Cell Titer Glo reagent (Promega, Madison, Wis.) was added to the assay plates with a Biotek uFlow Workstation. Plates were subsequently placed on an Envision Plate Reader (Perkin Elmer, Waltham, Mass.) for five minutes before the luminescence signal was read. CC50 values were defined as the compound concentration that caused a 50% decrease in luminescence signal, and were calculated by non-linear regression using Pipeline Pilot software by applying a four parameter fit equation (Accelrys, San Diego, Calif.) and are reported in the following Table 1.

[2] = five days, Cell Titer Glo luminescence, read-out: MT-4 CC50

| Structure (SMILES) | EC50 [1] | CC50 at 5 days (MT-4 cytotoxicity assay; [2]) | CC50 at 5 days (MT-4 cytotoxicity assay; MT-4 CC50) |
| --- | --- | --- | --- |
| COCCCOc1c(OC)cc2c(c1Br)[C@H]1CCC(C)(C)N1n1cc(C(=O)O)c(=O)cc1-2 [Example 40, (R)-13-bromo-11-methoxy-12-(3-methoxypropoxy)-3,3-dimethyl-8-oxo-2,3,8,13b-tetrahydro-1H-pyrido[2,1-a]pyrrolo[1,2-c]phthalazine-7-carboxylic acid] | 0.36 µM | 8.8 µM |  |
| COCCCOc1cc2c(cc1OC(C)(C)C)-c1cc(=O)c(C(=O)O)cn1N1[C@@H]2CCC1(C)C [Example 25, (R)-11-(tert-butoxy)-12-(3-methoxypropoxy)-3,3-dimethyl-8-oxo-2,3,8,13b-tetrahydro-1H-pyrido[2,1-a]pyrrolo[1,2-c]phthalazine-7-carboxylic acid] | 0.16 µM | > 10 µM |  |
| COc1cc2c(cc1OCC1CC(=O)C1)[C@H]1CCC(C)(C)N1n1cc(C(=O)O)c(=O)cc1-2 [Example 37] | 0.004 µM | > 10 µM |  |
| COCCCOc1cc2c(cc1OC)-c1cc(=O)c(C(=O)O)cn1N1[C@@H]2CCC1(C)C [Example 14, (R)-11-methoxy-12-(3-methoxypropoxy)-3,3-dimethyl-8-oxo-2,3,8,13b-tetrahydro-1H-pyrido[2,1-a]pyrrolo[1,2-c]phthalazine-7-carboxylic acid] | 0.0021 µM | > 10 µM |  |
| COCc1cc2c(cc1OCC13CC(C#N)(C1)C3)[C@H]1CCC3(CC3)N1n1cc(C(=O)O)c(=O)cc1-2 [Compound 107, (R)-12′-((3-cyanobicyclo[1.1.1]pentan-1-yl)methoxy)-11′-(methoxymethyl)-8′-oxo-1′,2′,8′,13b′-tetrahydrospiro[cyclopropane-1,3′-pyrido[2,1-a]pyrrolo[1,2-c]phthalazine]-7′-carboxylic acid] | 0.0059 µM |  | 7.8 µM |
| COCCCOc1cc2c(cc1Cl)-c1cc(=O)c(C(=O)O)cn1N1CC(C)(C)CCC21 (centres unmarked) [Example 17, 13-chloro-12-(3-methoxypropoxy)-8,8-dimethyl-2-oxo-2,7,8,9,10,10a-hexahydrodipyrido[2,1-a:1′,2′-c]phthalazine-3-carboxylic acid] | 0.11 µM | > 10 µM |  |
| COCCCOc1cc2c(cc1OC)-c1cc(=O)c(C(=O)O)cn1N1[C@H]2CCCC1(C)C (single isomer, unassigned) [Example 53] | 0.0091 µM | 9.7 µM |  |
| COC(C)(C)C#Cc1cc2c(cc1OC(F)F)-c1cc(=O)c(C(=O)O)cn1N1[C@@H]2CCC1(C)C [Example 103, (R)-11-(difluoromethoxy)-12-(3-methoxy-3-methylbut-1-yn-1-yl)-3,3-dimethyl-8-oxo-2,3,8,13b-tetrahydro-1H-pyrido[2,1-a]pyrrolo[1,2-c]phthalazine-7-carboxylic acid] | 0.00082 µM | > 10 µM |  |
| COCCOCc1cc2c(cc1OC)-c1cc(=O)c(C(=O)O)cn1N1[C@@H]2CCC1(C)C [Example 78, (R)-11-methoxy-12-((2-methoxyethoxy)methyl)-3,3-dimethyl-8-oxo-2,3,8,13b-tetrahydro-1H-pyrido[2,1-a]pyrrolo[1,2-c]phthalazine-7-carboxylic acid] | 0.07 µM | > 10 µM |  |
| COCCCOc1c(OC)cc2c(c1F)[C@H]1CCC(C)(C)N1n1cc(C(=O)O)c(=O)cc1-2 [Example 67, (R)-13-fluoro-11-methoxy-12-(3-methoxypropoxy)-3,3-dimethyl-8-oxo-2,3,8,13b-tetrahydro-1H-pyrido[2,1-a]pyrrolo[1,2-c]phthalazine-7-carboxylic acid] | 0.0053 µM | > 10 µM |  |
| COCCCOc1cc2c(cc1OC)-c1cc(=O)c(C(=O)O)cn1N1[C@H]2CCC1(C)C [Example 15, (S)-11-methoxy-12-(3-methoxypropoxy)-3,3-dimethyl-8-oxo-2,3,8,13b-tetrahydro-1H-pyrido[2,1-a]pyrrolo[1,2-c]phthalazine-7-carboxylic acid] | 0.35 µM | > 10 µM |  |
| COCCCOc1cc2c(cc1COC)-c1cc(=O)c(C(=O)O)cn1N1[C@@H]2COCC12CCC2 [Compound 114, (S)-12′-(methoxymethyl)-13′-(3-methoxypropoxy)-9′-oxo-9′,14b′-dihydro-1′H,3′H-spiro[cyclobutane-1,4′-[1,4]oxazino[3,4-a]pyrido[1,2-c]phthalazine]-8′-carboxylic acid] | 0.0676 µM |  | > 10 µM |
| COc1cc2c(cc1C#CC(C)(C)S(C)(=O)=O)[C@H]1CCC(C)(C)N1n1cc(C(=O)O)c(=O)cc1-2 [Example 83, (R)-11-methoxy-3,3-dimethyl-12-(3-methyl-3-(methylsulfonyl)but-1-yn-1-yl)-8-oxo-2,3,8,13b-tetrahydro-1H-pyrido[2,1-a]pyrrolo[1,2-c]phthalazine-7-carboxylic acid] | 0.0096 µM | > 10 µM |  |
| COCCCOc1cc2c(cc1Cl)-c1cc(=O)c(C(=O)O)cn1N1[C@@H]2CCC1(COC)COC [Example 80, (R)-11-chloro-3,3-bis(methoxymethyl)-12-(3-methoxypropoxy)-8-oxo-2,3,8,13b-tetrahydro-1H-pyrido[2,1-a]pyrrolo[1,2-c]phthalazine-7-carboxylic acid] | 0.045 µM | > 10 µM |  |
| COCCCOc1cc2c(cc1Cl)-c1cc(=O)c(C(=O)O)cn1N1[C@@H]2CCCC1(C)C (single isomer, unassigned) [Example 12] | 0.0025 µM | 8.8 µM |  |
| COCCCOc1cc2c(cc1Cl)-c1cc(=O)c(C(=O)O)cn1N1CCCC(C)(C)C21 (centres unmarked) [Example 38, 13-chloro-12-(3-methoxypropoxy)-10,10-dimethyl-2-oxo-2,7,8,9,10,10a-hexahydrodipyrido[2,1-a:1′,2′-c]phthalazine-3-carboxylic acid] | 0.027 µM | 9.9 µM |  |
| COc1cc2c(cc1OCCCOc1ccccc1)[C@H]1CCC(C)(C)N1n1cc(C(=O)O)c(=O)cc1-2 [Example 61] | 0.00094 µM | 6 µM |  |
| CC1(C)CC[C@@H]2c3cc(OCC45CC(C#N)(C4)C5)c(OC(F)F)cc3-c3cc(=O)c(C(=O)O)cn3N21 [Example 104, (R)-12-((3-cyanobicyclo[1.1.1]pentan-1-yl)methoxy)-11-(difluoromethoxy)-3,3-dimethyl-8-oxo-2,3,8,13b-tetrahydro-1H-pyrido[2,1-a]pyrrolo[1,2-c]phthalazine-7-carboxylic acid] | 0.0027 µM | > 10 µM |  |
| COCCCOc1cc2c(cc1Cl)-c1cc(=O)c(C(=O)O)cn1N1[C@H](C)CC[C@@H]21 (single isomer, unassigned) [Example 9] | 0.045 µM | > 10 µM |  |
| COCCCOc1cc2c(cc1OC(C)C)-c1cc(=O)c(C(=O)O)cn1N1[C@@H]2CCC1(C)C [Example 22, (R)-11-isopropoxy-12-(3-methoxypropoxy)-3,3-dimethyl-8-oxo-2,3,8,13b-tetrahydro-1H-pyrido[2,1-a]pyrrolo[1,2-c]phthalazine-7-carboxylic acid] | 0.012 µM | > 10 µM |  |
| COCc1cc2c(cc1N1CC[C@@H](COC)C1)[C@H]1CCC(C)(C)N1n1cc(C(=O)O)c(=O)cc1-2 [Compound 117, (R)-11-(methoxymethyl)-12-((R)-3-(methoxymethyl)pyrrolidin-1-yl)-3,3-dimethyl-8-oxo-2,3,8,13b-tetrahydro-1H-pyrido[2,1-a]pyrrolo[1,2-c]phthalazine-7-carboxylic acid] | 0.0053 µM | 9.7 µM |  |
| COCCCOc1cc2c(cc1COC)-c1cc(=O)c(C(=O)O)cn1N1[C@@H]2CCC12CCC2 [Compound 110, (R)-11′-(methoxymethyl)-12′-(3-methoxypropoxy)-8′-oxo-1′,2′,8′,13b′-tetrahydrospiro[cyclobutane-1,3′-pyrido[2,1-a]pyrrolo[1,2-c]phthalazine]-7′-carboxylic acid] | 0.0039 µM |  | > 10 µM |
